Assay results as given in patent publication US4163780A (Kirin-Seagram Limited, priority 1977, dated 1979).

System: influenza A2 -Kumamoto/Y5 (H2 N2) virus
Format: in vivo, influenza virus; DDI mice
Conditions: Virazole 50 mg/kg, intraperitoneal, 15 times

NC(=O)c1ncn([C@@H]2O[C@H](CO)[C@@H](O)[C@H]2O)n1 [Virazole]
Average of survival days: > 16.9 days
Survival percentage: 30%
